Values of other authors, collected in PMC10104807, “Modulation of tau tubulin kinases (TTBK1 and TTBK2) impacts ciliogenesis” (Scientific Reports, 2023).

Assays:
[1] = parameters: method as in PMID 34978799; conditions: cited from earlier work
[2] = system: 403 wild-type (WT) human kinases; parameters: method as in PMID 33944571; conditions: 1 μM; cited from earlier work
tau phosphorylation = conditions: cited from earlier work

SMILES	brain penetration [1]	number of kinases bound with PoC < 10 in DiscoverX scanMAX panel [2]	tau phosphorylation at multiple disease-relevant sites in vivo (tau phosphorylation)
Clc1ccc(-c2ccc(Nc3ncnc4[nH]ccc34)cc2)cc1 [compound 29]	good brain penetration		
CC[C@](C)(O)C#Cc1cc2c(ccn2-c2cc(OC)nc(N)n2)cn1 [BGN31]		eight	significantly lowered
CC[C@](C)(O)C#Cc1cc2c(cn1)cnn2-c1ccnc(N)n1 [BGN18]		sixteen	
